Test results taken from ChEMBL document CHEMBL1201862, “PubChem BioAssay data set” (2004).
The source made the active and inactive calls.

Legend:
[1] = biological target: T1, Alkaline phosphatase, tissue-nonspecific isozyme (Homo sapiens, UniProt P05186)
T1 sequence (P05186 whole entry): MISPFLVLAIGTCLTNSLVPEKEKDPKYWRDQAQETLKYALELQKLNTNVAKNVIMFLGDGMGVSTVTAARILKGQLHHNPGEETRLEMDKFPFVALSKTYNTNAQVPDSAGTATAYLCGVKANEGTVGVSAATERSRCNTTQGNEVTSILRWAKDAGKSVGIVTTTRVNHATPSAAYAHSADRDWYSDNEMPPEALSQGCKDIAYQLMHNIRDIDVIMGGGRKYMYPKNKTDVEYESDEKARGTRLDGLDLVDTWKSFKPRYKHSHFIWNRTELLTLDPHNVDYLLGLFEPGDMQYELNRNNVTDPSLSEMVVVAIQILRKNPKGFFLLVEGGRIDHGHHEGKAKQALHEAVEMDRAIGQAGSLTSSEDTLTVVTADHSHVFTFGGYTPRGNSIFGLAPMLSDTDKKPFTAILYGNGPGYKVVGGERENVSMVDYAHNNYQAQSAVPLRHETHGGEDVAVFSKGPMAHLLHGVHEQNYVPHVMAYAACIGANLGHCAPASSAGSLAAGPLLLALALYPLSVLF

[2] = biological target: Transitional endoplasmic reticulum ATPase (Homo sapiens, UniProt P55072); assay: p97 ATPase inhibitors, dose response, biochemical (AID 1534)
Transitional endoplasmic reticulum ATPase (Homo sapiens, UniProt P55072), sequence (P55072 whole entry): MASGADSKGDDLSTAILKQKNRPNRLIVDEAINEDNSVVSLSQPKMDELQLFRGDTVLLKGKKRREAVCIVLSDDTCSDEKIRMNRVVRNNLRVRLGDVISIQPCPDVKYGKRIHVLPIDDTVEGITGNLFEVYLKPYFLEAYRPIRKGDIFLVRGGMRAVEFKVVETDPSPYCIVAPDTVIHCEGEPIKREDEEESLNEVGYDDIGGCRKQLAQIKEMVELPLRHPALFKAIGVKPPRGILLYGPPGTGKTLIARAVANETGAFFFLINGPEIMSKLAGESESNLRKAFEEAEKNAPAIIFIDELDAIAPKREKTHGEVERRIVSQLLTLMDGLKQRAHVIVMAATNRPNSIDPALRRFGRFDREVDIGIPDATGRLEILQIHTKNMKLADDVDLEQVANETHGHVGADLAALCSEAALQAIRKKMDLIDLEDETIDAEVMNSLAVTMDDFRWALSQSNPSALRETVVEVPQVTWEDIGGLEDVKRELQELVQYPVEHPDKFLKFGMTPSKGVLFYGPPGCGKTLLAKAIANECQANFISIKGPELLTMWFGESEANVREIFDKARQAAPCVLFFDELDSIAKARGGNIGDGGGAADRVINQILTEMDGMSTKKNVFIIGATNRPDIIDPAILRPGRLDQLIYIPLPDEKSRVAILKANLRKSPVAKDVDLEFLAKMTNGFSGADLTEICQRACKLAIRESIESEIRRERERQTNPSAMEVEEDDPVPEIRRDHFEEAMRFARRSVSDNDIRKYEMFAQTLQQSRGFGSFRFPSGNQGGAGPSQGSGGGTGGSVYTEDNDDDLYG

NS3 = NS3 (Hepatitis C virus, UniProt A3EZJ3); assay: PubChem AID 2173; parameters: species or system Hepacivirus hominis
NS3, sequence (A3EZJ3 whole entry): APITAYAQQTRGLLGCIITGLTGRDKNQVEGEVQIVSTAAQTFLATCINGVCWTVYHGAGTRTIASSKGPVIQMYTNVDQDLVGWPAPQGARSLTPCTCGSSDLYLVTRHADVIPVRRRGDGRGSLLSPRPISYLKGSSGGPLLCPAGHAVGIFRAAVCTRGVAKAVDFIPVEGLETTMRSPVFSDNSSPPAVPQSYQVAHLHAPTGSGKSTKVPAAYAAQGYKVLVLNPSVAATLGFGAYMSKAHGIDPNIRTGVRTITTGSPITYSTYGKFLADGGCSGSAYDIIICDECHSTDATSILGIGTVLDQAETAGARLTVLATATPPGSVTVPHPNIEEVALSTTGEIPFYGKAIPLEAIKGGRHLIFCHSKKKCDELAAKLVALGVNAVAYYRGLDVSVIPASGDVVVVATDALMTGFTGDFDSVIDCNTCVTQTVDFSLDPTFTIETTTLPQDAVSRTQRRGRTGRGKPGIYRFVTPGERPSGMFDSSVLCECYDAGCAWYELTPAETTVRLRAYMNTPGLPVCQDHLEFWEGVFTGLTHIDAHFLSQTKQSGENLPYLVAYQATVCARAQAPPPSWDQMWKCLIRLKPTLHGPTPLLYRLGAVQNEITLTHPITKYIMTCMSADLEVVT

[3] = biological target: Transitional endoplasmic reticulum ATPase (Homo sapiens, UniProt P55072, C522A); assay: C522A mutant p97 ATPase inhibitors, dose response, counter-screen for p97 inhibitor project, biochemical, luminescence (AID 1544)
Transitional endoplasmic reticulum ATPase (Homo sapiens, UniProt P55072, C522A), sequence (P55072 2-806 C522A limits assumed): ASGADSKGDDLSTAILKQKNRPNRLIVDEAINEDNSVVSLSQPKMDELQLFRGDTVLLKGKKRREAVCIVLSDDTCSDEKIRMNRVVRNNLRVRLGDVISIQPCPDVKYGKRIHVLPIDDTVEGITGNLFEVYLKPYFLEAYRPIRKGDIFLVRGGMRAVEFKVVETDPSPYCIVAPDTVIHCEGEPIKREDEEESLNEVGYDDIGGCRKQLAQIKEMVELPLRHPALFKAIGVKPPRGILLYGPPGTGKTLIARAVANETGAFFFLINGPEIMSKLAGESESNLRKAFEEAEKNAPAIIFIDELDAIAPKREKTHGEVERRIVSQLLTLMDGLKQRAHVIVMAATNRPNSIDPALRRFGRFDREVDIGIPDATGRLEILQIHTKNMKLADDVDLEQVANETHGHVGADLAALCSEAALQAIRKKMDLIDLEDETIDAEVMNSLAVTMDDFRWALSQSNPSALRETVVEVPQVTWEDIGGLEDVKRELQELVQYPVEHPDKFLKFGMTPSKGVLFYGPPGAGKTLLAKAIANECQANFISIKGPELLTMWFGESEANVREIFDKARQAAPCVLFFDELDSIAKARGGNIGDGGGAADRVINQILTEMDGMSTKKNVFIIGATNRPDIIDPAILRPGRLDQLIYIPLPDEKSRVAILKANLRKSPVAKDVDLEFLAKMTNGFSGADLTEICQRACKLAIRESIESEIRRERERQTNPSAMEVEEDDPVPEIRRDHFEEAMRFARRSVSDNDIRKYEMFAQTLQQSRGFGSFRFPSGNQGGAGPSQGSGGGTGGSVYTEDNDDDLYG

[4] = biological target: T2, Neuropeptide Y receptor type 1 (Homo sapiens, UniProt P25929); assay type: functional;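 further: HEK293 cells with a CNG channel challenged with NPY then isoproterenol; potency as antagonist that reverses NPY suppression of cAMP signal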
T2 sequence (P25929 whole entry): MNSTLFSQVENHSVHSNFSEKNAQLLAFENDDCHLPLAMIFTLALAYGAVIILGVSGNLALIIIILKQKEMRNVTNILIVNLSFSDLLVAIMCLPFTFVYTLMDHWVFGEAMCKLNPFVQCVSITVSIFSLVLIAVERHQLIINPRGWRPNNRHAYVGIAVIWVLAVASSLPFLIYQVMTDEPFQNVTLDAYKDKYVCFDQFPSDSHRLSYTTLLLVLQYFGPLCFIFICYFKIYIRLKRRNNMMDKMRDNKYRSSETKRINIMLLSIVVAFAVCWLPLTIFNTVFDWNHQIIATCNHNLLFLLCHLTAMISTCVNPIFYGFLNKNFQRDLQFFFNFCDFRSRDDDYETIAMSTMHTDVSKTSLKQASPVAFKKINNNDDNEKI

[5] = biological target: T3, Neuropeptide Y receptor type 2 (Homo sapiens, UniProt P49146); assay type: functional, cell-based;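 further: HEK293 cells expressing the receptor and a CNG channel; stimulus was NPY near EC95 followed by isoproterenol to raise cAMP; antagonist potency measured as restoring cAMP signal that NPY suppresses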
T3 sequence (P49146 whole entry): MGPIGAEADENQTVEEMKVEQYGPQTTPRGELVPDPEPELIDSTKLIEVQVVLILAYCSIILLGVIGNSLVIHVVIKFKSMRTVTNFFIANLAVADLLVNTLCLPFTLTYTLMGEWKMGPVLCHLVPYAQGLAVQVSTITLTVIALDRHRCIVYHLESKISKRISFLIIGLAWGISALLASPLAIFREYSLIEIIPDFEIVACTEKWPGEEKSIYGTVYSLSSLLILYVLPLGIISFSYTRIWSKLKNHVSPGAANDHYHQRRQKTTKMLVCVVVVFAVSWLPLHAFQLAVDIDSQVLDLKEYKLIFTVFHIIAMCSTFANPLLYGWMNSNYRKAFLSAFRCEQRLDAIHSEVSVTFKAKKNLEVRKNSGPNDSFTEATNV

[6] = biological target: T4, Replicative DNA helicase DnaB (Mycobacterium tuberculosis, UniProt P9WMR3); assay: DnaB intein splicing inhibitors, dose response, biochemical, cell-free fluorescence (AID 449749); assay type: functional
T4 sequence (P9WMR3 whole entry): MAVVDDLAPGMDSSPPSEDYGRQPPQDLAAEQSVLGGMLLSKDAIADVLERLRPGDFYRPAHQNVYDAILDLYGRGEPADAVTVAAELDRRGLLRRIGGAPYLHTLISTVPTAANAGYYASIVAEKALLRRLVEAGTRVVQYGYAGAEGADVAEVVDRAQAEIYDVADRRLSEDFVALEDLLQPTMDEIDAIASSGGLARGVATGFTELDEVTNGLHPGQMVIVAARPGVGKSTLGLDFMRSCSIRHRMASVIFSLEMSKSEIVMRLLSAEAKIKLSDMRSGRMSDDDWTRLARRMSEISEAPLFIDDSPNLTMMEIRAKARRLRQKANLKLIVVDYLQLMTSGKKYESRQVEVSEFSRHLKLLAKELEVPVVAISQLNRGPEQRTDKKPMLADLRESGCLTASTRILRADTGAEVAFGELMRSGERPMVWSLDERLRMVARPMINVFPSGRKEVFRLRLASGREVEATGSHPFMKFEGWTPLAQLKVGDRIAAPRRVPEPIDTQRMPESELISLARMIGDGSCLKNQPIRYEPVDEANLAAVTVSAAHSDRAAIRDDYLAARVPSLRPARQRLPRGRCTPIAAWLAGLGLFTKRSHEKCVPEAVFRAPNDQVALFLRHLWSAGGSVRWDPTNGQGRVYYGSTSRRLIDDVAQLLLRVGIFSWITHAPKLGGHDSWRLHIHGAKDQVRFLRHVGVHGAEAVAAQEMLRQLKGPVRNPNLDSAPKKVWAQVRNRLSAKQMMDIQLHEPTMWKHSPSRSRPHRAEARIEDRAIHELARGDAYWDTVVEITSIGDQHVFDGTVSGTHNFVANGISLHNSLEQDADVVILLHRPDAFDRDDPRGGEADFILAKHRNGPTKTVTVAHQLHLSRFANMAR

[7] = DRD fibroblast viability loss – cell-based, non-viral oncogenic, luminescence, dose response (AID 1934); assay type: functional; settings: Homo sapiens
Melanocortin receptor 4 = Melanocortin receptor 4 (Homo sapiens, UniProt P32245); assay: inhibitors of MC4R cAMP signaling – cell-based, TR-FRET, biased antagonists, dose response (AID 602298); assay type: functional;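 further: antagonist potency against agonist-stimulated cAMP production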
Melanocortin receptor 4, sequence (P32245 whole entry): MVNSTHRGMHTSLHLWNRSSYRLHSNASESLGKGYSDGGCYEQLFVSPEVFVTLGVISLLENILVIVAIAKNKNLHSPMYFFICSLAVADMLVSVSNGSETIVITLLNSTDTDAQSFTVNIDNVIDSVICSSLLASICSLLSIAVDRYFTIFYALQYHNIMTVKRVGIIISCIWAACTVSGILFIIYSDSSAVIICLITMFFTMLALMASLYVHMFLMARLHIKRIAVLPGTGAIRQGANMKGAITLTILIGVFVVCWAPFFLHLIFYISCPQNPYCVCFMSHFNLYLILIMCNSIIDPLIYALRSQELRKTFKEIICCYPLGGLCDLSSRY

Protein RecA = biological target: T5, Protein RecA (Mycobacterium tuberculosis, UniProt P9WHJ3); assay: Fluorescence Cell-Free Homogeneous Dose Retest to Identify Inhibitors of RecA-Intein Splicing Activity. [Related pubchem assays (depositor defined):AID2097, AID2223, AID489010, AID492950]; assay type: functional
T5 sequence (P9WHJ3 whole entry): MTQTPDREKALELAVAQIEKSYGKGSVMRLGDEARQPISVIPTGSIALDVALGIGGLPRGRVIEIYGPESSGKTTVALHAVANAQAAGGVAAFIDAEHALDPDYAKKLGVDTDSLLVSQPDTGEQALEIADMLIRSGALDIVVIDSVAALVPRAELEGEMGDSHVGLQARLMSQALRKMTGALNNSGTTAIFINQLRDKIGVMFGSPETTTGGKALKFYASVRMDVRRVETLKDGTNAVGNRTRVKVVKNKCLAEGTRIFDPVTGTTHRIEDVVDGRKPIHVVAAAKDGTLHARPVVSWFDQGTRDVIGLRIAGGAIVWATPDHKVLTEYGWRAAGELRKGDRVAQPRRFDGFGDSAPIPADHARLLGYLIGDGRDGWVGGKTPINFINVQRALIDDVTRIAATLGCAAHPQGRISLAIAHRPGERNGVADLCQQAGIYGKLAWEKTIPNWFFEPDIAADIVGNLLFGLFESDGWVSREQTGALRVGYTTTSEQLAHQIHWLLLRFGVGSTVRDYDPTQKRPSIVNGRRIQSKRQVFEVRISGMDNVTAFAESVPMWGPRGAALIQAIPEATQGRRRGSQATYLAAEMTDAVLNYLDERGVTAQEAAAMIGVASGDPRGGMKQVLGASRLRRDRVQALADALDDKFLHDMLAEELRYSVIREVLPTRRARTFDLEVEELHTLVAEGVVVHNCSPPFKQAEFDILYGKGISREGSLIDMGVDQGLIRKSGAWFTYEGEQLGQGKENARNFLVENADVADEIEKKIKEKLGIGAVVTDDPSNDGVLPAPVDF

BJ [8] = assay: BJ-TERT-LT-ST fibroblast viability loss – cell-based, RAS-independent, luminescence, dose response (AID 1935); assay type: functional; settings: Homo sapiens;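 further: BJ fibroblasts immortalized with TERT plus LT and ST oncogenes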
[9] = microbe, parasite or virus in culture; assay type: functional; settings: Mycobacterium tuberculosis
[10] = cAMP pathway inhibition in counterscreen cell line – TR-FRET cAMP detection, counter-screen for MC4R biased antagonist project, dose response (AID 602305); assay type: functional, cell-based;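 further: U2OS cells stimulated with forskolin near its EC80 as the cAMP inducer; potency is for inhibition of forskolin-stimulated cAMP signaling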
BJ [11] = assay: cells; assay type: functional, cell-based; settings: Homo sapiens
BJ [12] = assay: BJ-TERT fibroblast viability loss – cell-based, RAS-independent, luminescence, dose response (AID 1933); assay type: functional; settings: Homo sapiens
[13] = biological target: Sphingosine 1-phosphate receptor 1 (Homo sapiens, UniProt P21453); assay type: functional;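 further: Tango beta-arrestin reporter U2OS cells stimulated with S1P near its EC80; inhibitor potency meaning antagonism of receptor activation by the natural agonist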
Sphingosine 1-phosphate receptor 1, sequence (P21453 whole entry): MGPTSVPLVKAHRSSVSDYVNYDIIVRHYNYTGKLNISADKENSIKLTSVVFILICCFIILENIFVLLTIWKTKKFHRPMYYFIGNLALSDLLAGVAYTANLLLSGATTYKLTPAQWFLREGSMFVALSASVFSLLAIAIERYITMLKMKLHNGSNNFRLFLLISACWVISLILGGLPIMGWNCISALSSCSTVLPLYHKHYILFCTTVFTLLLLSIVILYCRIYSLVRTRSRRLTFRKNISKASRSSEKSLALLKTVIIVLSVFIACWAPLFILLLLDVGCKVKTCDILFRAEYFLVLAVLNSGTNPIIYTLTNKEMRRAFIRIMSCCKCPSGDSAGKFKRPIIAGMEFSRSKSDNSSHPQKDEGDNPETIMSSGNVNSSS

[14] = biological target: T6, Sphingosine 1-phosphate receptor 4 (Homo sapiens, UniProt O95977); assay: Fluorescence dose response cell-based high throughput screening assay for antagonists of the Sphingosine 1-Phosphate Receptor 4 (S1P4). [Related pubchem assays: 1524 (Confirmation in triplicates.), 1510 (Primary screen.)]; assay type: functional
T6 sequence (O95977 whole entry): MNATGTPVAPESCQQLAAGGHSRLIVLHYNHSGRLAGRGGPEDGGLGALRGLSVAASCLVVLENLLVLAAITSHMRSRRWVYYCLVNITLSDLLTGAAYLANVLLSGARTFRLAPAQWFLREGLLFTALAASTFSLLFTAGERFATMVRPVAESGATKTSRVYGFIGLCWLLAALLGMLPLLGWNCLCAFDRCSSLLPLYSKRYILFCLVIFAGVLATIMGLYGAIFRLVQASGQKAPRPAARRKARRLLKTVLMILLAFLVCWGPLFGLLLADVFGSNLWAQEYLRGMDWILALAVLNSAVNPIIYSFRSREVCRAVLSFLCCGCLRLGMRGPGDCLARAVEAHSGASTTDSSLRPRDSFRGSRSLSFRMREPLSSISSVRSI

[15] = biological target: Glyceraldehyde-3-phosphate dehydrogenase (Homo sapiens, UniProt P04406)
Glyceraldehyde-3-phosphate dehydrogenase, sequence (P04406 whole entry): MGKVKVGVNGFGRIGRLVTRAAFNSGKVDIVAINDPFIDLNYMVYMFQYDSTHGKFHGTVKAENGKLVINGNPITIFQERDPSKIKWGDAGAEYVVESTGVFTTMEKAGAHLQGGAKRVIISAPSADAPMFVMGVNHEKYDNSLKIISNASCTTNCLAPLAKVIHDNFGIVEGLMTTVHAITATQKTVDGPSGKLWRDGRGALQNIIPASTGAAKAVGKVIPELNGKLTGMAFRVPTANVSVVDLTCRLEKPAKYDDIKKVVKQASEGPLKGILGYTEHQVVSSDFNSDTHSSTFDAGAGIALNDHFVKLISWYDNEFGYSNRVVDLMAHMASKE

[16] = biological target: Heat shock cognate 71 kDa protein (Homo sapiens, UniProt P11142); assay: In Vitro Hsc70 Dose Response Fluorescence Polarization Assay. [Related pubchem assays: 1072 ]
Heat shock cognate 71 kDa protein, sequence (P11142 whole entry): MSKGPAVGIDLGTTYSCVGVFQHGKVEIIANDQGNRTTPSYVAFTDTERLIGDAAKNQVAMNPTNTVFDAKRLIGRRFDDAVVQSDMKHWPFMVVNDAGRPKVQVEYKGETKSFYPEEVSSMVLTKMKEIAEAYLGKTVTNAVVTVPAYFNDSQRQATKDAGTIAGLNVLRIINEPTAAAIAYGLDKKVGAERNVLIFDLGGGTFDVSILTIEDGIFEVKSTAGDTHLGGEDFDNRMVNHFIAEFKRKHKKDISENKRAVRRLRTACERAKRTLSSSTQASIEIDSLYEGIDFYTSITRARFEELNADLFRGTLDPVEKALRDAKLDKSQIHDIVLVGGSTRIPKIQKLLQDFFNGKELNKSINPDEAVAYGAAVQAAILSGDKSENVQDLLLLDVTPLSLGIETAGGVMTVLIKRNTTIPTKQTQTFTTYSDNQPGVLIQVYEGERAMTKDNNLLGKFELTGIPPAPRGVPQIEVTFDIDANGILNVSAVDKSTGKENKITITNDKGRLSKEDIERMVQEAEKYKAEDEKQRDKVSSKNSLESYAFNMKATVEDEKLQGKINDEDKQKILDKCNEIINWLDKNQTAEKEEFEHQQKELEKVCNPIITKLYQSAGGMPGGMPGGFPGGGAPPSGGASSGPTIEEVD

[17] = biological target: Heat shock 70 kDa protein 1A (Homo sapiens, UniProt P0DMV8); assay: inhibition of Hsp70 binding activity – biochemical, fluorescence polarization, SAR follow-up (AID 1072)
Heat shock 70 kDa protein 1A, sequence (P0DMV8 whole entry): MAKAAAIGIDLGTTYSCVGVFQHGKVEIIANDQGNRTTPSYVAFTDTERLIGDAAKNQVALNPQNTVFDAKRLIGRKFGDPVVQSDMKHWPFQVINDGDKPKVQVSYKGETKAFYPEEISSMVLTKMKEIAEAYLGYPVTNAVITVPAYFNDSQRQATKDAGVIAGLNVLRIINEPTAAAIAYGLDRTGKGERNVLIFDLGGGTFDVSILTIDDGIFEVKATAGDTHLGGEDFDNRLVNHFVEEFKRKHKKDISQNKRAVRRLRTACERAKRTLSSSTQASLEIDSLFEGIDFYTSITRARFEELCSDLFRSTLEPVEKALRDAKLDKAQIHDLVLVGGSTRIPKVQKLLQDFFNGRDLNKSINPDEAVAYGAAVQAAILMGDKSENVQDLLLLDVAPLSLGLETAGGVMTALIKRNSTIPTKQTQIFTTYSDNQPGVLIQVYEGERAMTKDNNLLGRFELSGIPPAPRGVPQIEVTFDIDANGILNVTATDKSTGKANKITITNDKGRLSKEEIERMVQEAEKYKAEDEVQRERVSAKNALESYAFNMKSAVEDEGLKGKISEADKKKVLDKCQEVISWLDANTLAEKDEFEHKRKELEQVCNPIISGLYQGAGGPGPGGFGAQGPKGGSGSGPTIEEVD

For CC(C)CN=C(S)NNC(=O)c1ccco1, the EC50 [1] was 73.9 µM (not active).

For O=C(CCl)Nc1nc(-c2ccco2)c(-c2ccco2)s1, the IC50 [2] was > 50 µM (not active), the IC50 (NS3) was 47.8 µM (not active) and the IC50 [3] was > 50 µM (not active).

In the case of Cc1ccc(C)c(NS(=O)(=O)c2cc(C(=O)Nc3ccccc3-c3ccccc3)ccc2Cl)c1, the IC50 [4] is reported as > 35 µM (not active) and the IC50 [5] is reported as 0.428 µM (active).

For CC(=O)n1cc(N(C(=O)CCl)c2ccc(Cl)cc2)c2ccccc21, the AC50 [6] was 1.27 µM (active), the EC50 [7] was 1.37 µM (inconclusive) and the IC50 (Melanocortin receptor 4) was > 64.5 µM (inactive). The EC50 (Protein RecA) was 0.346 µM (active), the EC50 (BJ [8]) was 2.67 µM (active) and the CC50 [9] was 1.08 µM (active). For the same compound, the IC50 [10] was > 64.5 µM (inactive), the EC50 (BJ [11]) was 2.5 µM (inconclusive) and the EC50 (BJ [12]) was 0.198 µM (active). The IC50 [13] was 7.32 µM (active) and the IC50 [14] was 0.682 µM (active).

With Nc1ncnc2c1ncn2[C@@H]1O[C@H](COP(=O)(O)OP(=O)(O)OP(=O)(O)O)[C@@H](O)[C@H]1O [ADENOSINE TRIPHOSPHATE] the IC50 [15] was > 100 µM (not active), the IC50 [16] was 17.3 µM (active) and the IC50 [17] was 3.37 µM (active).
